Measured values taken from patent US4001237A, “Oxazole, isoxazole, thiazole and isothiazole amides” (priority 1976, dated 1977).

Experiment: Clinical use as antihypertensive agent in humans (literature reports)
Assay type: in vivo, human
Settings: clinical daily dose ranges 150 to 500 mg. versus 1.5 to 15 mg.

COc1cc2c(N)nc(N3CCN(C(=O)OCC(C)(C)O)CC3)nc2c(OC)c1OC [Trimazosin]
weaker than prazosin at the lower end of the clinical daily dosage range: 100 fold
